Reference: patent US20140336182A1, “Aurora Kinase Modulators and Method of Use” (Amgen Inc., priority 2013, published 2014)

system: HeLa cells; assay: HeLa cell 24 hr ploidy assay (DNA content); type: cell-based; details: Homo sapiens, HeLa, 4N ploidy, average, read-out: 24h_4NPloidy EC50_IP (uM Avg)
Protocol: HeLa cell 24 hr ploidy assay protocol
The purpose of this assay is to evaluate the ability of selected individual compounds to induce Deoxyribonucleic acid (DNA) content (ploidy) in cells through failed cell division. Cell cycle analysis is a rapid and efficient way to evaluate the status of DNA content (ploidy) of a given cell. HeLa cells (1×10^4 HeLa cells/well) in 100 ul of media (MEM+10% FBS) were plated in 96-well plates (Packard View) and cultured for 24 hrs at 37° C. maintained in a 5% CO2 atmosphere. […] The compounds were serially diluted in DMSO (0.25% final concentration). The cells were fixed (3.7% Formaldehyde and 1% glutaraldehyde) and permeabilized (1×PBS with 1% BSA and 0.2% Triton X-100) in preparation for nuclear staining. The well plates were stained for 45 minutes at RT in the dark using Hoechest 33342 nuclear stain at 0.5 ug.ml (Stock of 10 mg/ml, Invitrogen, CA, Cat #H3570). The nuclear stain was removed by aspiration and the cells were washed with wash buffer. A Cellomics Array Scan Vti plate reader was used to acquire the DNA ploidy data of the cells using Cell Cycle bioapplication. Numbers for each of “valid cell count/well”, “% of 4N cells” and “% of >4Ncells” were calculated with the assistance of an Activity Base 5.1ca software and dose curves were generated using an XLFit software. With XLFit, final EC50 IP and EC50 transit values, as well as the Max and Min, were calculated for each curve.

Structure (SMILES)	EC50 [µM]
COc1cnc2c(Oc3ccc(Nc4nnc(-c5ccc(C(F)(F)F)cc5)c5ccccc45)cc3)ccnc2c1 [compound 146, N-(4-((7-(methyloxy)-1,5-naphthyridin-4-yl)oxy)phenyl)-4-(4-(trifluoromethyl)phenyl)-1-phthalazinamine]	0.057
COc1cnc2c(Oc3ccc(Nc4nnc(-c5ccc6sccc6c5)c5ccccc45)cc3)ccnc2c1 [compound 142]	0.007
CN1CCN(c2nnc(Nc3ccc(Oc4ccnc5cc(C#N)ccc45)cc3)c3ccccc23)CC1 [compound 94]	0.09
COc1cnc2c(Oc3ccc(Nc4nnc(-c5ccccc5)c5ccccc45)cc3)ccnc2c1 [compound 79, N-(4-((7-(methyloxy)-1,5-naphthyridin-4-yl)oxy)phenyl)-4-phenyl-1-phthalazinamine]	0.041
COc1cc2nccc(Nc3ccc(Nc4nnc(-c5ccccc5)c5ccccc45)cc3)c2cn1 [compound 124, N-(7-(methyloxy)-1,6-naphthyridin-4-yl)-N′-(4-phenyl-1-phthalazinyl)-1,4-benzenediamine]	0.025
COc1cnc2c(Oc3ccc(Nc4nnc(-c5ccc(C)cc5)c5ccccc45)cc3)ccnc2c1 [compound 81]	0.008
COc1cnc2c(Oc3ccc(Nc4nnc(-c5ccc(C)s5)c5ccccc45)cc3)ccnc2c1 [compound 138]	0.03
COc1cnc2c(Oc3ccc(Nc4nnc(-c5cc(F)ccc5OC)c5ccccc45)cc3)ccnc2c1 [compound 80]	0.487
COc1cc2ncnc(Oc3ccc(Nc4nnc(-c5ccccc5)c5ccccc45)cc3)c2cc1OC [compound 98, N-(4-((6,7-bis(methyloxy)-4-quinazolinyl)oxy)phenyl)-4-phenyl-1-phthalazinamine]	0.019
COc1ccc(-c2nnc(Nc3ccc(Oc4ccnc5cc(C#N)ccc45)cc3)c3ccccc23)cc1 [compound 141, 4-((4-((4-(4-(methyloxy)phenyl)-1-phthalazinyl)amino)phenyl)oxy)-7-quinolinecarbonitrile]	0.025
COc1cc2nccc(Oc3ccc(Nc4nnc(-c5ccccc5)c5ccccc45)cc3)c2cn1 [compound 96, N-(4-((7-(methyloxy)-1,6-naphthyridin-4-yl)oxy)phenyl)-4-phenyl-1-phthalazinamine]	0.063
CCc1cc(-c2ccccc2)nnc1Nc1ccc(Oc2ncnc3cc(OC)c(OC)cc23)cc1 [compound 148]	0.039
COc1ccc2c(Oc3ccc(Nc4nnc(-c5cccc(OC)n5)c5ccccc45)cc3)ccnc2c1 [compound 100]	0.02
COc1cc2nccc(Oc3ccc(Nc4nnc(-c5ccc(C)cn5)c5ccccc45)cc3)c2cn1 [compound 103]	0.03

same assay, conditions: Homo sapiens, HeLa, HeLa cells, 4N ploidy, average, read-out: 24h_4NPloidy EC50_IP (uM Avg)

Structure (SMILES)	EC50 [µM]
COc1cnc2c(Sc3ccc(Nc4nnc(OCC(F)(F)F)c5ccccc45)cc3)ccnc2c1 [compound 513]	0.059
Cc1csc(-c2nnc(Nc3ccc(Sc4ccnc5cc(C(=O)N6CCOCC6)sc45)cc3)c3ccccc23)c1 [compound 312]	0.032
CCc1cc(N2CC[C@H]3CCCC[C@@H]3C2)nnc1Nc1ccc(Oc2ccnc3cc(OC)cnc23)cc1 [compound 320]	0.12
COCCCNc1nnc(Nc2ccc(Sc3ccnc4cc(OC)cnc34)cc2)c2ccccc12 [compound 535]	0.026
COc1cnc2c(Oc3ccc(Nc4nnc(-c5ccc(F)c(C)c5)c5ccccc45)cc3)ccnc2c1 [compound 246, 4-(4-fluoro-3-methylphenyl)-N-(4-((7-(methyloxy)-1,5-naphthyridin-4-yl)oxy)phenyl)-1-phthalazinamine]	0.03
COCCOCCn1c(=O)ccc2nccc(Sc3ccc(Nc4nnc(-c5ccc(Cl)cc5)c5ccccc45)cc3)c21 [compound 476]	0.14
Brc1cnc2c(Oc3ccc(Nc4nnc(-c5ccccc5)c5ccccc45)cc3)ccnc2c1 [compound 245]	0.381
c1ccc(-c2nnc(Nc3ccc(Sc4ccnc5c4CCCN5)cc3)c3ccccc23)cc1 [compound 577]	0.025
COCCOc1ccc(-c2nnc(Nc3ccc(Sc4ccnc5cc(OC)cnc45)cc3)c3ccccc23)cc1 [compound 474]	0.024
COc1cnc2c(Oc3ccc(Nc4nnc(-c5ccc(SC)cc5)c5ccccc45)cc3)ccnc2c1 [compound 237]	0.03
Clc1ccc(-c2nnc(Nc3ccc(Sc4ccnc5c4CCCN5)cc3)c3ccccc23)cc1 [compound 570]	0.008
COc1cnc2c(Oc3ccc(Nc4nnc(-c5cn[nH]c5)c5ccccc45)cc3)ccnc2c1 [compound 212]	0.501
COc1cnc2c(Sc3ccc(Nc4nnc(N5CCCC5)c5ccccc45)cc3)ccnc2c1 [compound 521]	0.021
COc1cnc2c(Oc3ccc(Nc4nnc(-c5ccc(F)nc5)c5ccccc45)cc3)ccnc2c1 [compound 190, 4-(6-fluoro-3-pyridinyl)-N-(4-((7-(methyloxy)-1,5-naphthyridin-4-yl)oxy)phenyl)-1-phthalazinamine]	0.129
COCCOc1cc(-c2nnc(Nc3ccc(Oc4ccnc5cc(OC)cnc45)cc3)c3ccccc23)ccc1C [Example 395, N-(4-(7-Methoxy-1,5-naphthyridin-4-yloxy)phenyl)-4-(3-(2-methoxyethoxy)-4-methylphenyl)phthalazin-1-amine]	0.023
Nc1ccc2nccc(Sc3ccc(Nc4nnc(-c5ccccc5)c5ccccc45)cc3)c2c1 [Example 399, N-(4-(6-Aminoquinolin-4-ylthio)phenyl)-4-phenylphthalazin-1-amine]	0.019
COc1cnc2c(Oc3ccc(Nc4nnc(-c5ccc(OC)c(C)c5)c5ccccc45)cc3)ccnc2c1 [compound 213]	0.044
Cc1csc(-c2nnc(Nc3ccc(Sc4ccnc5ccoc45)cc3)c3ccccc23)c1 [compound 468]	0.014
c1ccc(-c2nnc(Nc3ccc(Sc4ccnc5ccoc45)cc3)c3ccccc23)cc1 [compound 466]	0.086
COc1cc2nccc(Sc3ccc(Nc4nnc(-c5ccccc5)c5ccccc45)cc3)c2cn1 [compound 353]	0.007
COc1cnc2c(Oc3ccc(Nc4nnc(-c5cccc(N6CCCCC6)c5)c5ccccc45)cc3)ccnc2c1 [compound 197]	0.021

Structure (SMILES)	EC50 [µM]
c1ccc(-c2nnc(Nc3ccc(Sc4ncnc5ccccc45)cc3)c3ccccc23)cc1 [compound 561]	> 1.2
COc1cc2ncnc(Sc3ccc(Nc4nnc(-c5ccc(Cl)cc5)c5ccccc45)cc3)c2cc1OC [compound 418]	0.004
COc1cnc2c(Sc3ccc(Nc4nnc(-c5ccc6cn[nH]c6c5)c5ccccc45)cc3)ccnc2c1 [compound 453]	< 0.0023
FC1(F)Oc2ccc(-c3nnc(Nc4ccc(Oc5ccnc6ccsc56)cc4)c4ccccc34)cc2O1 [compound 293]	0.045
Cc1csc(-c2nnc(Nc3ccc(Sc4ccnc5ccsc45)cc3)c3ccccc23)c1 [compound 366]	0.002
c1ccc(-c2nnc(Nc3ccc(Oc4ccnc5ccnn45)cc3)c3ccccc23)cc1 [compound 370]	0.757
COc1ccc2nccc(Sc3ccc(Nc4nnc(-c5ccc(Cl)cn5)c5ccccc45)cc3)c2n1 [compound 550]	0.016
COc1cnc2c(Oc3ccc(Nc4nncc5ccccc45)cc3)ccnc2c1 [compound 542, N-(4-((7-methoxy-1,5-naphthyridin-4-yl)oxy)phenyl)-1-phthalazinamine]	0.382
Cc1csc(-c2nnc(Nc3ccc(Oc4ccnc5ccncc45)cc3)c3ccccc23)c1 [compound 429]	0.034
COc1ccc(-c2nnc(Nc3ccc(Sc4ccnc5cccnc45)cc3)c3ccccc23)cn1 [compound 509]	0.008
COc1cc2nccc(Oc3ccc(Nc4nnc(-c5ccccc5)c5ccccc45)cc3)c2cc1C#N [Example 392, 7-Methoxy-4-(4-(4-phenylphthalazin-1-ylamino)phenoxy)quinoline-6-carbonitrile]	0.085
N#Cc1cc2nccc(Sc3ccc(Nc4nnc(-c5ccccc5)c5ccccc45)cc3)c2s1 [compound 458]	0.148
N#Cc1ccc2c(Oc3ccc(Nc4nnc(-c5ccc(Cl)c(C#N)c5)c5ccccc45)cc3)ccnc2c1 [compound 231]	0.067
COCCOc1ccc2nccc(Sc3ccc(Nc4nnc(-c5ccc(Cl)cc5)c5ccccc45)cc3)c2c1 [compound 434]	0.027
COc1cnc2c(Sc3ccc(Nc4nnc(N5CCc6sccc6C5)c5ccccc45)cc3)ccnc2c1 [compound 578]	0.007
COc1cc(OC)c2c(Sc3ccc(Nc4nnc(-c5ccc(Cl)cc5)c5ccccc45)cc3)ccnc2c1 [compound 436]	0.049
COc1cnc2c(Oc3ccc(Nc4nnc(-c5cc6ccccc6o5)c5ccccc45)cc3)ccnc2c1 [compound 176]	0.008
c1ccc(-c2nnc(Nc3ccc(Oc4ncnc5[nH]ccc45)cc3)c3ccccc23)cc1 [compound 273]	> 1.2
COc1cnc2c(Sc3ccc(Nc4nnc(N5CCN6CCC[C@H]6C5)c5ccccc45)cc3)ccnc2c1 [compound 563]	< 0.0023
COc1cc2nccc(Sc3ccc(Nc4nnc(-c5ccccc5)c5ccccc45)cc3)c2nc1OC [compound 597]	0.061
COc1cnc2c(Oc3ccc(Nc4nnc(N5CC[C@@H]6CCCC[C@H]6C5)c5ccccc45)cc3)ccnc2c1 [compound 587]	0.14
